Values after ≈ are worked out from the molar mass of the structure shown.
Assays:
Type in all cases: functional
Streptococcus pneumoniae [1] = assay: Antibacterial activity against Streptococcus pneumoniae 49619
Streptococcus pneumoniae [2] = assay: Antibacterial activity against Streptococcus pneumoniae Mef S 3427
Streptococcus pneumoniae [3] = assay: Antibacterial activity against Streptococcus pneumoniae Erm 6849
Staphylococcus aureus [4] = assay: Antibacterial activity against Staphylococcus aureus 29213
Staphylococcus aureus [5] = assay: Antibacterial activity against Staphylococcus aureus 33591
Streptococcus pneumoniae [6] = assay: Antibacterial activity against Streptococcus pneumoniae 297-749
[7] = system: Staphylococcus epidermidis; assay: Antibacterial activity against Staphylococcus epidermidis 14990
Streptococcus pneumoniae [8] = assay: Antibacterial activity against Streptococcus pneumoniae Mef 5654
Streptococcus pyogenes = assay: Antibacterial activity against Streptococcus pyogenes 8668
Haemophilus influenzae [9] = assay: Antibacterial activity against Haemophilus influenzae 2762
[10] = system: Staphylococcus epidermidis; assay: Antibacterial activity against Staphylococcus epidermidis f50654
Streptococcus pneumoniae [11] = assay: Antibacterial activity against Streptococcus pneumoniae 280-962
Haemophilus influenzae [12] = assay: Antibacterial activity against Haemophilus influenzae 49247
Enterococcus faecalis [13] = assay: Antibacterial activity against Enterococcus faecalis bc11148-2
Enterococcus faecalis [14] = assay: Antibacterial activity against Enterococcus faecalis 29212

Structure (SMILES)	MIC (Streptococcus pneumoniae [1]) [µg/mL]	MIC (Streptococcus pneumoniae [2]) [µg/mL]	MIC (Streptococcus pneumoniae [3]) [µg/mL]	MIC (Staphylococcus aureus [4]) [µg/mL]	MIC (Staphylococcus aureus [5]) [µg/mL]	MIC (Streptococcus pneumoniae [6]) [µg/mL]	MIC [7] [µg/mL]	MIC (Streptococcus pneumoniae [8]) [µg/mL]	MIC (Streptococcus pyogenes) [µg/mL]	MIC (Haemophilus influenzae [9]) [µg/mL]	MIC [10] [µg/mL]	MIC (Streptococcus pneumoniae [11]) [µg/mL]	MIC (Haemophilus influenzae [12]) [µg/mL]	MIC (Enterococcus faecalis [13]) [µg/mL]	MIC (Enterococcus faecalis [14]) [µg/mL]
C=C[C@]12OC(=O)N(CCCCn3cnc(-c4ccc(N(C)C)nc4)c3)[C@@H]1[C@@H](C)C(=O)[C@H](C)C[C@@](C)(OC)[C@H](O[C@@H]1O[C@H](C)C[C@H](N(C)C)[C@H]1O)[C@@H](C)C(=O)[C@@H](C)C(=O)O[C@@H]2CC	≤ 0.05	0.2 (≈ 0.231 µM)	0.78 (≈ 0.9 µM)	0.2 (≈ 0.231 µM)	> 50	≤ 0.05	0.2 (≈ 0.231 µM)	1.56 (≈ 1.8 µM)	≤ 0.05	1.56 (≈ 1.8 µM)	0.2 (≈ 0.231 µM)	≤ 0.05	12.5 (≈ 14.4 µM)	0.78 (≈ 0.9 µM)	0.1 (≈ 0.115 µM)
C=C[C@]12OC(=O)N(CCCCn3cc(Cl)c4ncccc43)[C@@H]1[C@@H](C)C(=O)[C@H](C)C[C@@](C)(OC)[C@H](O[C@@H]1O[C@H](C)C[C@H](N(C)C)[C@H]1O)[C@@H](C)C(=O)[C@@H](C)C(=O)O[C@@H]2CC	≤ 0.05	0.1 (≈ 0.12 µM)	3.13 (≈ 3.76 µM)	0.2 (≈ 0.241 µM)	> 50	≤ 0.05	0.1 (≈ 0.12 µM)	0.78 (≈ 0.938 µM)	≤ 0.05	0.78 (≈ 0.938 µM)	0.1 (≈ 0.12 µM)	≤ 0.05	3.13 (≈ 3.76 µM)	1.56 (≈ 1.88 µM)	0.1 (≈ 0.12 µM)
C=C[C@]12OC(=O)N(CCCCn3cnc4ncccc43)[C@@H]1[C@@H](C)C(=O)[C@H](C)C[C@@](C)(OC)[C@H](O[C@@H]1O[C@H](C)C[C@H](N(C)C)[C@H]1O)[C@@H](C)C(=O)[C@@H](C)C(=O)O[C@@H]2CC	≤ 0.05	0.2 (≈ 0.251 µM)	3.13 (≈ 3.92 µM)	0.2 (≈ 0.251 µM)	> 50	≤ 0.05	0.1 (≈ 0.125 µM)	1.56 (≈ 1.95 µM)	≤ 0.05	0.78 (≈ 0.977 µM)	0.4 (≈ 0.501 µM)	≤ 0.05	1.56 (≈ 1.95 µM)	0.78 (≈ 0.977 µM)	0.1 (≈ 0.125 µM)
C=C[C@]12OC(=O)N(CCCCc3ccc(-c4cccnc4)s3)[C@@H]1[C@@H](C)C(=O)[C@H](C)C[C@@](C)(OC)[C@H](O[C@@H]1O[C@H](C)C[C@H](N(C)C)[C@H]1O)[C@@H](C)C(=O)[C@@H](C)C(=O)O[C@@H]2CC	≤ 0.05	0.2 (≈ 0.238 µM)	3.13 (≈ 3.73 µM)	0.2 (≈ 0.238 µM)	12.5 (≈ 14.9 µM)	≤ 0.05	0.2 (≈ 0.238 µM)	0.78 (≈ 0.928 µM)	0.1 (≈ 0.119 µM)	3.13 (≈ 3.73 µM)	0.2 (≈ 0.238 µM)	≤ 0.05	3.13 (≈ 3.73 µM)	3.13 (≈ 3.73 µM)	0.1 (≈ 0.119 µM)
C=C[C@]12OC(=O)N(CCCCn3ccc4c(N)cccc43)[C@@H]1[C@@H](C)C(=O)[C@H](C)C[C@@](C)(OC)[C@H](O[C@@H]1O[C@H](C)C[C@H](N(C)C)[C@H]1O)[C@@H](C)C(=O)[C@@H](C)C(=O)O[C@@H]2CC	≤ 0.05	0.1 (≈ 0.123 µM)	3.13 (≈ 3.86 µM)	0.1 (≈ 0.123 µM)	> 50	≤ 0.05	0.1 (≈ 0.123 µM)	0.78 (≈ 0.962 µM)	≤ 0.05	3.13 (≈ 3.86 µM)	0.78 (≈ 0.962 µM)	≤ 0.05	3.13 (≈ 3.86 µM)	0.625 (≈ 0.771 µM)	≤ 0.05
C=C[C@]12OC(=O)N(CCN(C)Cc3cnc(-c4cccnc4)s3)[C@@H]1[C@@H](C)C(=O)[C@H](C)C[C@@](C)(OC)[C@H](O[C@@H]1O[C@H](C)C[C@H](N(C)C)[C@H]1O)[C@@H](C)C(=O)[C@@H](C)C(=O)O[C@@H]2CC	≤ 0.05	0.1 (≈ 0.117 µM)	0.78 (≈ 0.911 µM)	0.1 (≈ 0.117 µM)	> 50	≤ 0.05	0.1 (≈ 0.117 µM)	0.4 (≈ 0.467 µM)	≤ 0.05	3.13 (≈ 3.66 µM)	0.1 (≈ 0.117 µM)	≤ 0.05	12.5 (≈ 14.6 µM)	0.4 (≈ 0.467 µM)	0.1 (≈ 0.117 µM)
C=C[C@]12OC(=O)N(CCCC(C)(C)n3cnc4ncccc43)[C@@H]1[C@@H](C)C(=O)[C@H](C)C[C@@](C)(OC)[C@H](O[C@@H]1O[C@H](C)C[C@H](N(C)C)[C@H]1O)[C@@H](C)C(=O)[C@@H](C)C(=O)O[C@@H]2CC	≤ 0.05	0.2 (≈ 0.242 µM)	0.1 (≈ 0.121 µM)	0.2 (≈ 0.242 µM)	> 50	≤ 0.05	0.2 (≈ 0.242 µM)	0.78 (≈ 0.944 µM)	≤ 0.05	0.78 (≈ 0.944 µM)	0.1 (≈ 0.121 µM)	≤ 0.05	6.25 (≈ 7.57 µM)	0.4 (≈ 0.484 µM)	0.1 (≈ 0.121 µM)
C=C[C@]12OC(=O)N(CCCCn3cnc(-c4ccc(OC)nc4)c3C)[C@@H]1[C@@H](C)C(=O)[C@H](C)C[C@@](C)(OC)[C@H](O[C@@H]1O[C@H](C)C[C@H](N(C)C)[C@H]1O)[C@@H](C)C(=O)[C@@H](C)C(=O)O[C@@H]2CC	≤ 0.05	0.2 (≈ 0.23 µM)	0.4 (≈ 0.461 µM)	0.2 (≈ 0.23 µM)	> 50	≤ 0.05	0.1 (≈ 0.115 µM)	1.56 (≈ 1.8 µM)	≤ 0.05	1.56 (≈ 1.8 µM)	0.4 (≈ 0.461 µM)	≤ 0.05	6.25 (≈ 7.2 µM)	1.56 (≈ 1.8 µM)	0.2 (≈ 0.23 µM)
C=C[C@]12OC(=O)N(CCCCn3cnc4cccnc43)[C@@H]1[C@@H](C)C(=O)[C@H](C)C[C@@](C)(OC)[C@H](O[C@@H]1O[C@H](C)C[C@H](N(C)C)[C@H]1O)[C@@H](C)C(=O)[C@@H](C)C(=O)O[C@@H]2CC	≤ 0.05	0.1 (≈ 0.125 µM)	12.5 (≈ 15.7 µM)	0.2 (≈ 0.251 µM)	> 50	≤ 0.05	0.1 (≈ 0.125 µM)	0.78 (≈ 0.977 µM)	≤ 0.05	0.78 (≈ 0.977 µM)	0.2 (≈ 0.251 µM)	≤ 0.05	1.56 (≈ 1.95 µM)	0.78 (≈ 0.977 µM)	0.1 (≈ 0.125 µM)
C=C[C@]12OC(=O)N(CCCCn3ccc4nc(C(C)=O)ccc43)[C@@H]1[C@@H](C)C(=O)[C@H](C)C[C@@](C)(OC)[C@H](O[C@@H]1O[C@H](C)C[C@H](N(C)C)[C@H]1O)[C@@H](C)C(=O)[C@@H](C)C(=O)O[C@@H]2CC	≤ 0.05	0.2 (≈ 0.238 µM)	3.13 (≈ 3.73 µM)	0.1 (≈ 0.119 µM)	> 50	≤ 0.05	0.1 (≈ 0.119 µM)	0.78 (≈ 0.93 µM)	≤ 0.05	0.2 (≈ 0.238 µM)	0.1 (≈ 0.119 µM)	≤ 0.05	3.13 (≈ 3.73 µM)	6.25 (≈ 7.45 µM)	0.2 (≈ 0.238 µM)
C=C[C@]12OC(=O)N(CCN(C)Cc3cccc(-c4cccnc4)c3)[C@@H]1[C@@H](C)C(=O)[C@H](C)C[C@@](C)(OC)[C@H](O[C@@H]1O[C@H](C)C[C@H](N(C)C)[C@H]1O)[C@@H](C)C(=O)[C@@H](C)C(=O)O[C@@H]2CC	≤ 0.05	0.1 (≈ 0.118 µM)	0.1 (≈ 0.118 µM)	0.2 (≈ 0.236 µM)	> 50	≤ 0.05	0.2 (≈ 0.236 µM)	0.78 (≈ 0.919 µM)	≤ 0.05	1.56 (≈ 1.84 µM)	0.1 (≈ 0.118 µM)	≤ 0.05	6.25 (≈ 7.36 µM)	0.1 (≈ 0.118 µM)	0.1 (≈ 0.118 µM)
C=C[C@]12OC(=O)N(CCCCn3cnc(-c4ccc(OC)nc4)c3)[C@@H]1[C@@H](C)C(=O)[C@H](C)C[C@@](C)(OC)[C@H](O[C@@H]1O[C@H](C)C[C@H](N(C)C)[C@H]1O)[C@@H](C)C(=O)[C@@H](C)C(=O)O[C@@H]2CC	≤ 0.05	0.1 (≈ 0.117 µM)	0.4 (≈ 0.468 µM)	0.1 (≈ 0.117 µM)	> 50	≤ 0.05	0.2 (≈ 0.234 µM)	0.78 (≈ 0.913 µM)	≤ 0.05	0.78 (≈ 0.913 µM)	0.1 (≈ 0.117 µM)	≤ 0.05	6.25 (≈ 7.32 µM)	0.78 (≈ 0.913 µM)	≤ 0.05

From ChEMBL document CHEMBL1138190, “Synthesis and antibacterial activity of novel C12 vinyl ketolides” (J Med Chem, 2006)
